This is an account of results in PubChem BioAssay (NCI).

Common to all, as to assay: DTP human tumour cell line panel, 48 h
Assay [1] relates to HCT-116 colon.
The test system of assay [2] is TK-10 renal.
Assay [3] has as its system A549 NSCLC.
Assay [4] has as its system U251 CNS.
For assay [5], the system named is OVCAR-5 ovarian.
Assay [6] concerns M14 melanoma.
The subject of assay [7] is SNB-75 CNS.
Assay [8] deals with OVCAR-4 ovarian.
Assay [9] relates to HCC-2998 colon.
In assay [10] the test system is HOP-62 NSCLC.

Values joined by “and” are separate entries in the source; they are usually repeats but may differ in a detail not shown here. Equal values may be shown once.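 The compound was tested at five concentrations on cells cultured in 96-well plates, with a 48-hour exposure period. Abbreviation: GI50, concentration required for 50% inhibition of growth. TGI denotes the concentration required for complete inhibition of growth.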 Bounds are passed on as bounds.

Regarding `C[C@H](N)C(=O)N[C@@H]1[C@H]2C(=C(O)C[C@@H](O)[C@@H]2O)C(=O)O[C@]1(C)C(Cl)Cl`, the GI50 is 0.205 µM in assay [1]; 0.685 µM in assay [2]; 0.271 µM in assay [3]; 0.171 µM in assay [4]; 0.258 µM in assay [6]; 0.226 µM in assay [7]. For the same molecule, the GI50 was 0.263 µM in assay [8], 0.224 µM in assay [9] and 0.297 µM in assay [10]. Also, the TGI in [1] was 1.85 µM and 1.33 µM; in assay [2] it was 6.92 µM and 2.06 µM; in assay [3], 4.92 µM and 2.81 µM; in assay [4], 3.08 µM and 2.29 µM; in assay [5] it was 7.44 µM and 3.44 µM; in assay [6], 1.49 µM and 0.507 µM. The TGI is 3.85 µM and 1.07 µM in assay [7]; 3.03 µM and 0.841 µM in assay [8]; 0.745 µM and 1.16 µM in assay [9]; 1.85 µM and 1.29 µM in assay [10].
With `C#CCSc1n[nH]c(-c2ccco2)n1`, the TGI in [1], in assay [2], in [3], in assay [4], in assay [5] and in [6] was greater than 100 µM in each case. The total growth inhibition concentration (TGI) in assay [7], in assay [8], in assay [9] and in assay [10] was greater than 100 µM each time.
As to `CCOC(=O)Cc1nc2ccccc2s1`, the TGI in assay [1] is 39 µM; in assay [2] it was 55 µM; in assay [3] it was 54.2 µM; in assay [4], 30.7 µM; in [5], 57 µM; in assay [6], 31 µM. In addition, the total growth inhibition concentration (TGI) was 94.1 µM in assay [7], greater than 10 µM in assay [8], greater than 100 µM in assay [9] and 52 µM in assay [10].
In the case of `O=C(N/N=C/c1ccccc1O)C(O)(c1ccccc1)c1ccccc1`, the GI50 in assay [1] was 2.95 µM; in assay [2], greater than 100 µM; in assay [3], 9.67 µM; in assay [4], 4.77 µM; in assay [5] it was greater than 100 µM; in assay [6], 50.5 µM. For the same molecule, the GI50 in assay [7] is greater than 100 µM; in [8], 3.43 µM; in assay [9], 17.4 µM; in assay [10], 7.37 µM. Further, the TGI in [1], in [2], in [3], in [4], in assay [5] and in assay [6] was greater than 100 µM each time. For the same molecule, the concentration for total growth inhibition (TGI) in [7], in [8], in assay [9] and in [10] was greater than 100 µM in each case.
Take `C=CC(=O)N1C/C(=C\c2ccccc2)C(=O)/C(=C/c2ccccc2)C1`: the GI50 was 0.355 µM in assay [1] and 0.376 µM in [4]. Further, the TGI in assay [1] came to 0.397 µM; in assay [2], 7 µM; in assay [3], 9 µM; in assay [4], 2.62 µM; in assay [5], 5.72 µM; in [6] it was 4.58 µM. The TGI in [7] was 10 µM; in [8], 6.6 µM; in assay [9] it was 3.67 µM; in [10], 6.28 µM.
Consider `COC(=O)[C@H]1C(=O)[C@@]2(C)[C@H]([C@H](OC(=O)c3ccccc3)[C@]3(O)C[C@H](OC(=O)[C@H](O)[C@@H](NC(=O)c4ccc(F)cc4)c4ccccc4)C(C)=C1C3(C)C)[C@]1(OC(C)=O)CO[C@@H]1C[C@@H]2O`, for which the GI50 in assay [1] is 0.00432 µM; in assay [2], 0.0676 µM; in [3], 0.0116 µM; in assay [4], 0.0103 µM; in [5], 0.0149 µM; in assay [6], 0.0114 µM. Also, the 50% growth inhibitory concentration (GI50) in assay [7] was 0.00273 µM; in assay [8], 0.633 µM; in [9], 0.00909 µM; in assay [10] it was 0.0112 µM. The TGI is greater than 25 µM in [1]; 3.91 µM in [2]; greater than 25 µM in assay [3]; greater than 25 µM in assay [4]; greater than 25 µM in assay [5]; 0.105 µM in assay [6]. Also, the TGI in assay [7] is 0.0443 µM; in assay [8], greater than 25 µM; in assay [9], greater than 9.55 µM; in assay [10], greater than 6.58 µM.
For `CN1CCC(CNc2ccc3ncc(-c4cccc(OC(F)(F)F)c4)n3n2)CC1`, the GI50 is 1.83 µM and 1.7 µM in assay [1]; 2.36 µM and 2.16 µM in assay [2]; 1.85 µM and 2.3 µM in assay [3]; 1.6 µM and 1.44 µM in assay [4]; 2.68 µM and 2.95 µM in assay [5]; 1.74 µM and 1.48 µM in assay [6]. Further, the GI50 in assay [7] is 1.39 µM and 1.09 µM; in assay [8], 2.39 µM and 3.81 µM; in [9], 1.57 µM and 1.45 µM; in assay [10], 1.84 µM and 3.44 µM. The TGI in assay [1] was 3.94 µM and 4.33 µM; in assay [2], 8.52 µM and > 10 µM; in assay [3] it was 4.97 µM and > 10 µM; in assay [4], 3.23 µM and 2.97 µM; in assay [5] it was 8.32 µM and > 10 µM; in assay [6], 3.5 µM and 3.15 µM. The TGI in [7] is 4.46 µM and 8.12 µM; in [8], 8.21 µM and > 10 µM; in assay [9], 3.15 µM and 3.32 µM; in [10] it was 4.25 µM and > 10 µM.
As to `COc1cccc(NC(=O)C(C)(C)C)c1C=O`, the total growth inhibition concentration (TGI) in assay [1], in [2], in assay [3], in assay [4], in assay [5] and in [6] was greater than 100 µM each time. Moreover, the TGI in assay [7], in assay [8], in [9] and in assay [10] was greater than 100 µM in each case.
For `CN(C)c1ncnc2c1Cc1ccccc1C(=O)N2C`, the TGI in [1], in [2], in assay [3], in assay [4], in assay [5] and in assay [6] was greater than 100 µM each time. The concentration for total growth inhibition (TGI) in assay [7], in assay [8], in [9] and in assay [10] was greater than 100 µM throughout.
